Data taken from ChEMBL document CHEMBL4308864, “Targeting tyrosine kinase: Development of acridone - pyrrole - oxindole hybrids against human breast cancer” (2019).

Key:
Assay type in all cases: functional
K562 = assay: Growth inhibition of human K562 cells assessed as cell growth at 10^-5 M incubated for 48 hrs by sulforhodamine B assay relative to control; conditions: K562, 48 h, read-out: Activity
SR = assay: Growth inhibition of human SR cells assessed as cell growth at 10^-5 M incubated for 48 hrs by sulforhodamine B assay relative to control; conditions: read-out: Activity
EKVX = assay: Growth inhibition of human EKVX cells assessed as cell growth at 10^-5 M incubated for 48 hrs by sulforhodamine B assay relative to control; conditions: read-out: Activity
HOP-62 = assay: Growth inhibition of human HOP62 cells assessed as cell growth at 10^-5 M incubated for 48 hrs by sulforhodamine B assay relative to control; conditions: HOP-62, 48 h, read-out: Activity
HOP-92 = assay: Growth inhibition of human HOP92 cells assessed as cell growth at 10^-5 M incubated for 48 hrs by sulforhodamine B assay relative to control; conditions: HOP-92, 48 h, read-out: Activity
NCI-H23 = assay: Growth inhibition of human NCI-H23 cells assessed as cell growth at 10^-5 M incubated for 48 hrs by sulforhodamine B assay relative to control; conditions: NCI-H23, 48 h, read-out: Activity
NCI-H322M = assay: Growth inhibition of human NCI-H322M cells assessed as cell growth at 10^-5 M incubated for 48 hrs by sulforhodamine B assay relative to control; conditions: read-out: Activity
NCI-H522 = assay: Growth inhibition of human NCI-H522 cells assessed as cell growth at 10^-5 M incubated for 48 hrs by sulforhodamine B assay relative to control; conditions: NCI-H522, 48 h, read-out: Activity
COLO 205 = assay: Growth inhibition of human COLO205 cells assessed as cell growth at 10^-5 M incubated for 48 hrs by sulforhodamine B assay relative to control; conditions: COLO 205, 48 h, read-out: Activity
HT-29 = assay: Growth inhibition of human HT-29 cells assessed as cell growth at 10^-5 M incubated for 48 hrs by sulforhodamine B assay relative to control; conditions: HT-29, 48 h, read-out: Activity
KM12 = assay: Growth inhibition of human KM12 cells assessed as cell growth at 10^-5 M incubated for 48 hrs by sulforhodamine B assay relative to control; conditions: KM12, 48 h, read-out: Activity
SW-620 = assay: Growth inhibition of human SW620 cells assessed as cell growth at 10^-5 M incubated for 48 hrs by sulforhodamine B assay relative to control; conditions: SW-620, 48 h, read-out: Activity
SF-268 = assay: Growth inhibition of human SF268 cells assessed as cell growth at 10^-5 M incubated for 48 hrs by sulforhodamine B assay relative to control; conditions: SF-268, 48 h, read-out: Activity
SF-295 = assay: Growth inhibition of human SF295 cells assessed as cell growth at 10^-5 M incubated for 48 hrs by sulforhodamine B assay relative to control; conditions: SF-295, 48 h, read-out: Activity
SF-539 = assay: Growth inhibition of human SF539 cells assessed as cell growth at 10^-5 M incubated for 48 hrs by sulforhodamine B assay relative to control; conditions: SF-539, 48 h, read-out: Activity
SNB-19 = assay: Growth inhibition of human SNB19 cells assessed as cell growth at 10^-5 M incubated for 48 hrs by sulforhodamine B assay relative to control; conditions: SNB-19, 48 h, read-out: Activity
SNB-75 = assay: Growth inhibition of human SNB75 cells assessed as cell growth at 10^-5 M incubated for 48 hrs by sulforhodamine B assay relative to control; conditions: SNB-75, 48 h, read-out: Activity
U-251 = assay: Growth inhibition of human U251 cells assessed as cell growth at 10^-5 M incubated for 48 hrs by sulforhodamine B assay relative to control; conditions: U-251, 48 h, read-out: Activity
LOX IMVI = assay: Growth inhibition of human LOXIMVI cells assessed as cell growth at 10^-5 M incubated for 48 hrs by sulforhodamine B assay relative to control; conditions: read-out: Activity
Malme-3M = assay: Growth inhibition of human MALME-3M cells assessed as cell growth at 10^-5 M incubated for 48 hrs by sulforhodamine B assay relative to control; conditions: read-out: Activity
M14 = assay: Growth inhibition of human M14 cells assessed as cell growth at 10^-5 M incubated for 48 hrs by sulforhodamine B assay relative to control; conditions: M14, 48 h, read-out: Activity
MDA-MB-435 = assay: Growth inhibition of human MDA-MB-435 cells assessed as cell growth at 10^-5 M incubated for 48 hrs by sulforhodamine B assay relative to control; conditions: MDA-MB-435, 48 h, read-out: Activity
UACC-62 = assay: Growth inhibition of human UACC62 cells assessed as cell growth at 10^-5 M incubated for 48 hrs by sulforhodamine B assay relative to control; conditions: UACC-62, 48 h, read-out: Activity
OVCAR-5 = assay: Growth inhibition of human OVCAR5 cells assessed as cell growth at 10^-5 M incubated for 48 hrs by sulforhodamine B assay relative to control; conditions: OVCAR-5, 48 h, read-out: Activity
NCI/ADR-RES = assay: Growth inhibition of human NCI/ADR-RES cells assessed as cell growth at 10^-5 M incubated for 48 hrs by sulforhodamine B assay relative to control; conditions: read-out: Activity
A498 = assay: Growth inhibition of human A498 cells assessed as cell growth at 10^-5 M incubated for 48 hrs by sulforhodamine B assay relative to control; conditions: A498, 48 h, read-out: Activity
ACHN = assay: Growth inhibition of human ACHN cells assessed as cell growth at 10^-5 M incubated for 48 hrs by sulforhodamine B assay relative to control; conditions: read-out: Activity
CAKI-1 = assay: Growth inhibition of human Caki1 cells assessed as cell growth at 10^-5 M incubated for 48 hrs by sulforhodamine B assay relative to control; conditions: CAKI-1, 48 h, read-out: Activity
TK-10 = assay: Growth inhibition of human TK10 cells assessed as cell growth at 10^-5 M incubated for 48 hrs by sulforhodamine B assay relative to control; conditions: TK-10, 48 h, read-out: Activity
UO-31 = assay: Growth inhibition of human UO31 cells assessed as cell growth at 10^-5 M incubated for 48 hrs by sulforhodamine B assay relative to control; conditions: UO-31, 48 h, read-out: Activity
DU-145 = assay: Growth inhibition of human DU145 cells assessed as cell growth at 10^-5 M incubated for 48 hrs by sulforhodamine B assay relative to control; conditions: DU-145, 48 h, read-out: Activity
BT-549 = assay: Growth inhibition of human BT549 cells assessed as cell growth at 10^-5 M incubated for 48 hrs by sulforhodamine B assay relative to control; conditions: BT-549, 48 h, read-out: Activity
MDA-MB-468 = assay: Growth inhibition of human MDA-MB-468 cells at 10^-5 M incubated for 48 hrs by sulforhodamine B assay relative to control; conditions: MDA-MB-468, 48 h, read-out: GI

Compound	growth at 10 µM (K562) [%]	growth at 10 µM (SR) [%]	growth at 10 µM (EKVX) [%]	growth at 10 µM (HOP-62) [%]	growth at 10 µM (HOP-92) [%]	growth at 10 µM (NCI-H23) [%]	growth at 10 µM (NCI-H322M) [%]	growth at 10 µM (NCI-H522) [%]	growth at 10 µM (COLO 205) [%]	growth at 10 µM (HT-29) [%]	growth at 10 µM (KM12) [%]	growth at 10 µM (SW-620) [%]	growth at 10 µM (SF-268) [%]	growth at 10 µM (SF-295) [%]	growth at 10 µM (SF-539) [%]	growth at 10 µM (SNB-19) [%]	growth at 10 µM (SNB-75) [%]	growth at 10 µM (U-251) [%]	growth at 10 µM (LOX IMVI) [%]	growth at 10 µM (Malme-3M) [%]	also measured
O=C1NC(=O)C(=Cc2cccn2CCCn2c3ccccc3c(=O)c3ccccc32)C(=O)N1	88.4	91.8	98	98.1	87.8	104	98.5	88.6	108	99.7	99.6	107	99.7	98.7	102	94.2	95.7	92.5	96.9	114	growth at 10 µM (M14): 102%; growth at 10 µM (MDA-MB-435): 104%; growth at 10 µM (UACC-62): 87.1%; growth at 10 µM (OVCAR-5): 99.9%; growth at 10 µM (NCI/ADR-RES): 101%; growth at 10 µM (A498): 98.5%; growth at 10 µM (ACHN): 102%; growth at 10 µM (CAKI-1): 96.7%; growth at 10 µM (TK-10): 96.6%; growth at 10 µM (UO-31): 75.9%; growth at 10 µM (DU-145): 108%; growth at 10 µM (BT-549): 98.9%; inhibition of growth at 10 µM (MDA-MB-468): 7%
O=C1NC(=O)C(=Cc2cccn2CCCCCn2c3ccccc3c(=O)c3ccccc32)C(=O)N1	89.1	86.8	105	102	90.4	96.3	98.3	90.5	114	103	103	105	102	99.4	102	101	101	96.8	95.3	119	growth at 10 µM (M14): 102%; growth at 10 µM (MDA-MB-435): 97.7%; growth at 10 µM (UACC-62): 90.8%; growth at 10 µM (OVCAR-5): 101%; growth at 10 µM (NCI/ADR-RES): 99.5%; growth at 10 µM (A498): 104%; growth at 10 µM (ACHN): 105%; growth at 10 µM (CAKI-1): 103%; growth at 10 µM (TK-10): 101%; growth at 10 µM (UO-31): 79.4%; growth at 10 µM (DU-145): 113%; growth at 10 µM (BT-549): 104%; inhibition of growth at 10 µM (MDA-MB-468): 0%
O=C1NC(=O)C(=Cc2cccn2CCCCCCn2c3ccccc3c(=O)c3ccccc32)C(=O)N1	74.7	72.2	100	93.1	85	84.2	94.1	92.7	105	105	97.1	96.9	97	97.6	107	94.2	107	90.5	89.7	112	growth at 10 µM (M14): 94.4%; growth at 10 µM (MDA-MB-435): 102%; growth at 10 µM (UACC-62): 82.1%; growth at 10 µM (OVCAR-5): 98.3%; growth at 10 µM (NCI/ADR-RES): 92.9%; growth at 10 µM (A498): 93.1%; growth at 10 µM (ACHN): 103%; growth at 10 µM (CAKI-1): 92.8%; growth at 10 µM (TK-10): 126%; growth at 10 µM (UO-31): 70.3%; growth at 10 µM (DU-145): 103%; growth at 10 µM (BT-549): 93.9%; inhibition of growth at 10 µM (MDA-MB-468): 5%
O=C1NC(=O)C(=Cc2cccn2CCCCn2c3ccccc3c(=O)c3ccccc32)C(=O)N1	58.9	51.6	100	79.1	86.1	81.7	97.3	70.5	100	90.2	74.3	87.9	85.7	78.5	85.4	75.4	92.6	76	82.6	95.6	growth at 10 µM (M14): 82.5%; growth at 10 µM (MDA-MB-435): 79.9%; growth at 10 µM (UACC-62): 66.1%; growth at 10 µM (OVCAR-5): 91.8%; growth at 10 µM (NCI/ADR-RES): 88.4%; growth at 10 µM (A498): 88.1%; growth at 10 µM (ACHN): 92.8%; growth at 10 µM (CAKI-1): 82.9%; growth at 10 µM (TK-10): 92.4%; growth at 10 µM (UO-31): 63.4%; growth at 10 µM (DU-145): 92.2%; growth at 10 µM (BT-549): 88.1%; inhibition of growth at 10 µM (MDA-MB-468): 40%
